# Results as given in patent US12110305B2, “Prodrugs of phosphonamide nucleotide analogues and their pharmaceutical use” (priority 2020, dated 2024).
# System: HIV-1 (IIIB)
# Assay: Antiviral (HIV) assay in MT-4 cells
# Type: cell-based
# Conditions: Human immunodeficiency virus 1, MT4, 120 h; HIV-1 IIIB in MT-4 cells, 5 days incubation, Cell Titer Glo; average of at least two independent experiments
# Method: Example 104: Antiviral (HIV) Assay in MT-4 Cells
# Compounds were tested in a high-throughput 384-well assay format for their ability to inhibit the replication of HIV-1 (IIIB) in MT-4 cells. Compounds were serially diluted (1:3) in DMSO on 384-well polypropylene plates and further diluted 200-fold into complete RPMI media (10% FBS, 1% P/S) using the Biotek Micro Flow and Labcyte ECHO acoustic dispenser. Each plate contained up to 8 test compounds, with negative (no drug) and positive (5 μM AZT) controls. MT-4 cells were pre-treated with 10 μL of either RPMI (mock-infected) or a fresh 1:250 dilution of HIV-1 IIIB concentrated virus stock. Infected and uninfected MT-4 cells were further diluted in complete RPMI media and added to each plate using a Micro Flow dispenser. After 5 days incubation in a humidified and temperature-controlled incubator (37° C.), Cell Titer Glo (Promega) was added to the assay plates and chemiluminescence read using an Envision plate-reader. EC50 values were defined as the compound concentration that causes a 50% decrease in luminescence signal and were calculated using a sigmoidal dose-response model to generate curve fits and are shown in Table 1.
row,EC50 [nM],Structure (SMILES)
1,5,"CCCCCCOC(=O)C(C)(C)NP(=O)(CO[C@H](C)Cn1cnc2c(N)ncnc21)NC(C)(C)C(=O)OCCCCCC [Example 1, Dihexyl 2,2′-(((((1-(6-amino-9H-purin-9-yl)propan-2-yl)oxy)methyl)phosphoryl)bis(azanediyl))(R)-bis(2-methylpropanoate)]"
2,6,"CCCCCOC(=O)C(C)(C)NP(=O)(CO[C@H](C)Cn1cnc2c(N)ncnc21)NC(C)(C)C(=O)OCCCCC [Example 4, Dipentyl 2,2′-(((((1-(6-amino-9H-purin-9-yl)propan-2-yl)oxy)methyl)phosphoryl)bis(azanediyl))(R)-bis(2-methylpropanoate)]"
3,37,"CCCCCCOC(=O)[C@](C)(CC)NP(=O)(CO[C@H](C)Cn1cnc2c(N)ncnc21)N[C@@](C)(CC)C(=O)OCCCCCC [Example 10, Dihexyl 2,2′-((((((R)-1-(6-amino-9H-purin-9-yl)propan-2-yl)oxy)methyl)phosphoryl)bis(azanediyl))(2S,2'S)-bis(2-methylbutanoate)]"
4,35,"CCCCCCOC(=O)C(C)(C)NP(=O)(CO[C@H](C)Cn1cnc2c(N)ncnc21)N[C@]1(C(=O)OCCCCCC)C[C@H]1CC (stereo partly drawn) [Example 16, Hexyl (1R,2R)-1-((((((R)-1-(6-amino-9H-purin-9-yl)propan-2-yl)oxy)methyl)((1-(hexyloxy)-2-methyl-1-oxopropan-2-yl)amino)phosphoryl)amino)-2-ethylcyclopropane-1-carboxylate]"
5,> 500,"CCCCCCOC(=O)[C@@]1(NP(=O)(CO[C@H](C)Cn2cnc3c(N)ncnc32)N[C@]2(C(=O)OCCCCCC)C[C@H]2CC)C[C@H]1CC [Example 17, Dihexyl 1,1′-((((((R)-1-(6-amino-9H-purin-9-yl)propan-2-yl)oxy)methyl)phosphoryl)bis(azanediyl))(1R,1′R,2R,2′R)-bis(2-ethylcyclopropane-1-carboxylate)]"
6,13,"CCCCCCOC(=O)C(C)(C)NP(=O)(CO[C@H](C)Cn1cnc2c(N)ncnc21)NC1(C(=O)OCCCCCC)CCC1 (stereo partly drawn) [Example 18, Hexyl 1-((((((R)-1-(6-amino-9H-purin-9-yl)propan-2-yl)oxy)methyl)((1-(hexyloxy)-2-methyl-1-oxopropan-2-yl)amino)phosphoryl)amino)cyclobutane-1-carboxylate]"
7,30,"CCCCCCOC(=O)C1(NP(=O)(CO[C@H](C)Cn2cnc3c(N)ncnc32)NC2(C(=O)OCCCCCC)CCC2)CCC1 [Example 19, Dihexyl 1,1′-(((((1-(6-amino-9H-purin-9-yl)propan-2-yl)oxy)methyl)phosphoryl)bis(azanediyl))(R)-bis(cyclobutane-1-carboxylate)]"
8,12,"CCCCCCOC(=O)C(C)(C)NP(=O)(CO[C@H](C)Cn1cnc2c(N)ncnc21)NC1(C(=O)OCCCCCC)CC1 (stereo partly drawn) [Example 20, Hexyl 1-((((((R)-1-(6-amino-9H-purin-9-yl)propan-2-yl)oxy)methyl)((1-(hexyloxy)-2-methyl-1-oxopropan-2-yl)amino)phosphoryl)amino)cyclopropane-1-carboxylate]"
9,65,"CCCCCCOC(=O)C(C)(C)NP(=O)(CO[C@H](C)Cn1cnc2c(NC(C)=O)ncnc21)NC(C)(C)C(=O)OCCCCCC [Example 28, Dihexyl 2,2′-(((((1-(6-acetamido-9H-purin-9-yl)propan-2-yl)oxy)methyl)phosphoryl)bis(azanediyl))(R)-bis(2-methylpropanoate)]"
10,16,"CCCCCCOC(=O)C(C)(C)NP(=O)(CO[C@H](C)Cn1cnc2c(NC(=O)CCC)ncnc21)NC(C)(C)C(=O)OCCCCCC [Example 29, Dihexyl 2,2′-(((((1-(6-butyramido-9H-purin-9-yl)propan-2-yl)oxy)methyl)phosphoryl)bis(azanediyl))(R)-bis(2-methylpropanoate)]"

# Second part, the compound before the results:
row,Structure (SMILES),EC50 [nM]
1,"CCC(CC)COC(=O)C(C)(C)NP(=O)(CO[C@H](C)Cn1cnc2c(N)ncnc21)NC(C)(C)C(=O)OCC(CC)CC [Example 2, Bis(2-ethylbutyl) 2,2′-(((((1-(6-amino-9H-purin-9-yl)propan-2-yl)oxy)methyl)phosphoryl)bis(azanediyl))(R)-bis(2-methylpropanoate)]",4
2,"C[C@H](Cn1cnc2c(N)ncnc21)OCP(=O)(NC(C)(C)C(=O)OCc1ccccc1)NC(C)(C)C(=O)OCc1ccccc1 [Example 3, Dibenzyl 2,2′-(((((1-(6-amino-9H-purin-9-yl)propan-2-yl)oxy)methyl)phosphoryl)bis(azanediyl))(R)-bis(2-methylpropanoate)]",10
3,C[C@H](Cn1cnc2c(N)ncnc21)OCP(=O)(NC(C)(C)C(=O)OCC(C)(C)C)NC(C)(C)C(=O)OCC(C)(C)C [Example 5],5
4,"CC(C)CCOC(=O)C(C)(C)NP(=O)(CO[C@H](C)Cn1cnc2c(N)ncnc21)NC(C)(C)C(=O)OCCC(C)C [Example 6, Diisopentyl 2,2′-(((((1-(6-amino-9H-purin-9-yl)propan-2-yl)oxy)methyl)phosphoryl)bis(azanediyl))(R)-bis(2-methylpropanoate)]",2
5,"CCC(CC)CCOC(=O)C(C)(C)NP(=O)(CO[C@H](C)Cn1cnc2c(N)ncnc21)NC(C)(C)C(=O)OCCC(CC)CC [Example 7, Bis(3-ethylpentyl) 2,2′-(((((1-(6-amino-9H-purin-9-yl)propan-2-yl)oxy)methyl)phosphoryl)bis(azanediyl))(R)-bis(2-methylpropanoate)]",9
6,"C[C@H](Cn1cnc2c(N)ncnc21)OCP(=O)(NC(C)(C)C(=O)OCCC(C)(C)C)NC(C)(C)C(=O)OCCC(C)(C)C [Example 8, Bis(3,3-dimethylbutyl) 2,2′-(((((1-(6-amino-9H-purin-9-yl)propan-2-yl)oxy)methyl)phosphoryl)bis(azanediyl))(R)-bis(2-methylpropanoate)]",5
7,"C[C@H](Cn1cnc2c(N)ncnc21)OCP(=O)(NC(C)(C)C(=O)OC(C)(C)C)NC(C)(C)C(=O)OC(C)(C)C [Example 9, Di-tert-butyl 2,2′-(((((1-(6-amino-9H-purin-9-yl)propan-2-yl)oxy)methyl)phosphoryl)bis(azanediyl))(R)-bis(2-methylpropanoate)]",169
8,"CCCCCCOC(=O)[C@](C)(Cc1ccccc1)NP(=O)(CO[C@H](C)Cn1cnc2c(N)ncnc21)N[C@@](C)(Cc1ccccc1)C(=O)OCCCCCC [Example 11, Dihexyl 2,2′-((((((R)-1-(6-amino-9H-purin-9-yl)propan-2-yl)oxy)methyl)phosphoryl)bis(azanediyl))(2S,2'S)-bis(2-methyl-3-phenylpropanoate)]",17
9,"C[C@H](Cn1cnc2c(N)ncnc21)OCP(=O)(NC(C)(C)C(=O)OCCC1CCCCC1)NC(C)(C)C(=O)OCCC1CCCCC1 [Example 14, Bis(2-cyclohexylethyl) 2,2′-(((((1-(6-amino-9H-purin-9-yl)propan-2-yl)oxy)methyl)phosphoryl)bis(azanediyl))(R)-bis(2-methylpropanoate)]",7
10,"C[C@H](Cn1cnc2c(N)ncnc21)OCP(=O)(N[C@@](C)(Cc1ccccc1)C(=O)OCC1CCCCC1)N[C@@](C)(Cc1ccccc1)C(=O)OCC1CCCCC1 [Example 15, Bis(cyclohexylmethyl) 2,2′-((((((R)-1-(6-amino-9H-purin-9-yl)propan-2-yl)oxy)methyl)phosphoryl)bis(azanediyl))(2S,2'S)-bis(2-methyl-3-phenylpropanoate)]",17
11,"C[C@H](Cn1cnc2c(N)ncnc21)OCP(=O)(NC(C)(C)C(=O)O[C@H]1CC[C@H](C(F)(F)F)CC1)NC(C)(C)C(=O)O[C@H]1CC[C@H](C(F)(F)F)CC1 [Example 21, Bis(trans-4-(trifluoromethyl)cyclohexyl) 2,2′-((((((R)-1-(6-amino-9H-purin-9-yl)propan-2-yl)oxy)methyl)phosphoryl)bis(azanediyl))bis(2-methylpropanoate)]",7
12,"CCCCCCOC(=O)C(C)(C)NP(=O)(CO[C@H](C)Cn1cnc2c(N)ncnc21)NC(C)(C)C(=O)O[C@H]1CC[C@H](C(F)(F)F)CC1 (stereo partly drawn) [Example 22, Hexyl 2-((((((R)-1-(6-amino-9H-purin-9-yl)propan-2-yl)oxy)methyl)((2-methyl-1-oxo-1-((trans-4-(trifluoromethyl)cyclohexyl)oxy)propan-2-yl)amino)phosphoryl)amino)-2-methylpropanoate]",9
13,"C[C@H](Cn1cnc2c(N)ncnc21)OCP(=O)(NC(C)(C)C(=O)OCCCCC(F)(F)F)NC(C)(C)C(=O)OCCCCC(F)(F)F [Example 25, Bis(5,5,5-trifluoropentyl) 2,2′-(((((1-(6-amino-9H-purin-9-yl)propan-2-yl)oxy)methyl)phosphoryl)bis(azanediyl))(R)-bis(2-methylpropanoate)]",8
14,"C[C@H](Cn1cnc2c(N)ncnc21)OCP(=O)(NC(C)(C)C(=O)O[C@H]1C[C@H](C(F)(F)F)C1)NC(C)(C)C(=O)O[C@H]1C[C@H](C(F)(F)F)C1 [Example 26, Bis(trans-3-(trifluoromethyl)cyclobutyl) 2,2′-((((((R)-1-(6-amino-9H-purin-9-yl)propan-2-yl)oxy)methyl)phosphoryl)bis(azanediyl))bis(2-methylpropanoate)]",6
15,CCC[C@H]1CC[C@H](OC(=O)C(C)(C)NP(=O)(CO[C@H](C)Cn2cnc3c(N)ncnc32)NC(C)(C)C(=O)O[C@H]2CC[C@H](CCC)CC2)CC1 [Example 27],26
